Measurements: PMC3549755, “A comparison of the ability of rilpivirine (TMC278) and selected analogues to inhibit clinically relevant HIV-1 reverse transcriptase mutants” (Retrovirology, 2012)
Read-outs that look alike come from different tables or passages of the source.

Experiments:
[1] = tested on: viral vector with E138K mutant HIV-1 RT; test: single-round infectivity assay, luciferase reporter, E138K RT vector; format: cell-based; conditions: for EC50: Human immunodeficiency virus 1, HOS cells, reduction of luciferase reporter activity, SD in parentheses; for loss of potency against E138K: compared with rilpivirine (1)
Description: (§1) We examined the effects of rilpivirine and the analogues on HIV-1 replication using a previously described assay and report the concentrations at which luciferase reporter activity was reduced by half relative to uninhibited controls (EC50) with standard deviations in parentheses. In the assay, viral vectors that replicate using WT HIV reverse transcriptase or one of several mutants (L100I, K103N, V106A, E138K, Y181C, Y188L, H221Y and the double mutant K103N/Y181C) were used to infect cells in a single round assay. These mutants were chosen either because they are known NNRTI resistance mutations (L100I, K103N, Y181C, and the K103N/Y181C double mutant), they were selected in patients in rilpivirine clinical trials (E138K and H221Y), or they are positioned to make significant Van der Waals contacts with rilpivirine (V106A and Y188L). All compounds were initially screened against a panel that included at least one RT mutant from all three groups (WT, K103N, E138K, Y181C and Y188L). The cytotoxicity of the compounds was also determined to establish the therapeutic index of each of the compounds.
(§2) Procedures for virion production and cell-based assay have been reported. Briefly, all cell cultures were maintained in Dulbecco’s modified Eagle’s medium (Invitrogen, Carlsbad, CA) with 5% (v/v) fetal bovine serum, 5% newborn calf serum, penicillin (50 units/mL) and streptomycin (50 μg/mL) (Quality Biological, Gaithersburg, MD). […]. Transfected cells were incubated at 37°C for 8 hrs, washed twice with PBS, fresh media was added and the cells were returned to the incubator for 48 hrs. The pNLNgoMIVR^+ΔEnv.LUC plasmid encodes the HIV-1 genome with an Env deletion and either WT HIV-1 RT, or one of the following mutants: L100I, K103N, V106A, E138K, Y181C, Y188L, H221Y, or K103N/Y181C. Supernatants from each plate were clarified by low-speed centrifugation (3,000xg for 20 min), then treated with 200 U DNase I (Roche Applied Science, Mannheim, Germany) at room temperature for 3 hours. Viral supernatants were stored at −20°C until used.
(§3) One day prior to infection, 100 μL of human osteosarcoma (HOS) cells were added to each well of a 96-well plate at a density of 4x10^4 cells/mL. Plates were incubated overnight at 37°C. On the day of infection, 10X drug stocks were prepared by serial dilution in media from an initial 10 mM stock solution in DMSO. Cells in the 96-well plate were pre-treated by the addition of 22 μL of the appropriate drug stock and returned to the incubator for 3 hours. Thawed virus stocks were diluted 1:2 in media, then 100 μL of virus was added to the pre-treated cells, bringing the final drug concentrations to 0.1 nM to 100 nM, with DMSO-treated cells (no drug) serving as a reference. In addition, 12 wells of cells treated with media and no virus served as negative controls. Plates were returned to the incubator for an additional 42 hours, at which time the luciferase activity was determined using Steady-Lite Plus kits (PerkinElmer, Waltham, MA). Background luciferase activity, as measured for the negative controls, was subtracted from the activities measured for each infected well. Drug-free, DMSO-treated wells were normalized to 100% infectivity. Infectivity at each drug concentration was determined as a percentage of these drug-free infections. Drug concentration versus percent infectivity was plotted for each RT-inhibitor combination, and the data were fit to a four-parameter sigmoidal curve using KaleidaGraph 4.0 (Synergy Software, Reading, PA). The inflection point of each curve is reported as the IC50. All values are the mean of triplicate infections.

[2] = tested on: viral vectors that replicate using WT HIV reverse transcriptase; test: single-round infectivity assay, luciferase reporter, vector with WT RT; format: cell-based, HIV-1; conditions: SD in parentheses
Description: as §1, §2, §3

[3] = tested on: viral vector with K103N/Y181C double mutant HIV-1 RT; test: single-round infectivity assay, luciferase reporter, K103N/Y181C RT vector; format: cell-based; conditions: for EC50: Human immunodeficiency virus 1, broader panel, SD in parentheses
Description: as §1, §2, §3

[4] = tested on: viral vector with Y181C mutant HIV-1 RT; test: single-round infectivity assay, luciferase reporter, Y181C RT vector; format: cell-based; conditions: Human immunodeficiency virus 1; HOS cells, reduction of luciferase reporter activity, SD in parentheses
Description: as §1, §2, §3

[5] = tested on: viral vector with K103N mutant HIV-1 RT; test: single-round infectivity assay, luciferase reporter, K103N RT vector; format: cell-based; conditions: Human immunodeficiency virus 1; HOS cells, reduction of luciferase reporter activity, SD in parentheses
Description: as §1, §2, §3

[6] = tested on: viral vector with Y188L mutant HIV-1 RT; test: single-round infectivity assay, luciferase reporter, Y188L RT vector; format: cell-based; conditions: for EC50: Human immunodeficiency virus 1, HOS cells, reduction of luciferase reporter activity, SD in parentheses
Description: as §1, §2, §3

[7] = tested on: viral vector with H221Y mutant HIV-1 RT; test: single-round infectivity assay, luciferase reporter, H221Y RT vector; format: cell-based; conditions: Human immunodeficiency virus 1; broader panel, SD in parentheses
Description: as §1, §2, §3

[8] = tested on: viral vector with L100I mutant HIV-1 RT; test: single-round infectivity assay, luciferase reporter, L100I RT vector; format: cell-based; conditions: Human immunodeficiency virus 1; broader panel, SD in parentheses
Description: as §1, §2, §3

[9] = tested on: viral vector with V106A mutant HIV-1 RT; test: single-round infectivity assay, luciferase reporter, V106A RT vector; format: cell-based; conditions: Human immunodeficiency virus 1; broader panel, SD in parentheses
Description: as §1, §2, §3

HOS cells = test: cytotoxicity assay (ATP-Lite cell viability); format: cell-based, human; conditions: for Therapeutic Index (T.I.): ratio of CC50/EC50 (WT)
Procedure: (§4) One day prior to treatment, HOS cells were prepared in 96-well plates as described for the infectivity assays, except that 12 wells per plate were treated with cell-free media to serve as negative controls. The following day, serial dilutions of drug stocks were prepared in media from 10 mM stocks in DMSO. Each well received 11 μL of the appropriate drug concentration or DMSO-treated, drug-free media. Final drug concentrations ranged from 0.5 μM to 300 μM. The drug-free wells served as references. Plates were then incubated at 37°C for 48 hours. Cell viability was determined using luciferase reporter ATP-Lite kits (PerkinElmer). As described for the infectivity assays, drug-free reference wells were normalized to 100%, and viabilities at different drug concentrations were determined as a percentage of these references. Data were plotted and analyzed in the same manner as the IC50 data, with the inflection points of the curves reported as CC50.

[10] = cytotoxicity assay (ATP-Lite cell viability); format: cell-based, human; conditions: human, HOS cells, 48 hours, SD in parentheses
Procedure: as §4

[11] = HOS cells, reduction of luciferase reporter activity, read-out: EC50 WT
[12] = Human immunodeficiency virus 1, HOS, HOS cells, reduction of luciferase reporter activity, read-out: EC50 WT
[13] = Human immunodeficiency virus 1, broader panel table, read-out: EC50 WT (Table S1)

SMILES | EC50 [1] | EC50 [2, 11] | EC50 [2, 12] | EC50 [3] | fold resistance / loss of potency against K103N/Y181C double mutant ([3]; relative to WT) | EC50 [4] | EC50 [5] | EC50 [6] | EC50 [7] | EC50 [8] | EC50 [9] | Therapeutic Index (T.I.) (HOS cells) | CC50 at 48 h [10] | EC50 [2, 13] | loss of potency against E138K [1] | CC50 (HOS cells; HOS cells, 48 hours, SD in parentheses) | loss of potency against Y188L ([6]; compared with rilpivirine (1))
Cc1cc(/C=C/C#N)cc(C)c1Nc1ccnc(Nc2ccc(C#N)cc2)n1 [Analogue 1, rilpivirine] | 0.3 nM | 0.2 nM | 0.4 ± 0.02 nM | 3.1 nM | ~ 8 fold | 1.3 nM | 0.2 nM | 2.3 ± 0.2 nM | 0.4 nM | < 0.1 nM | 0.1 nM | 2.5x10^4 | 10000 ± 600 nM | – | – | – | –
Cc1cc(/C=C/C#N)cc(C)c1Nc1nc(Nc2ccc(C#N)cc2)ncc1[N+](=O)[O-] [Analogue 6] | 1.4 nM | – | – | 27 nM | – | 2.1 nM | 0.2 nM | 6.8 ± 0.5 nM | 0.4 nM | < 0.1 nM | 0.1 nM | 1.2x10^5 | 24000 nM | 0.2 nM | – | – | –
Cc1cc(/C=C/C#N)cc(C)c1Nc1nc(Nc2ccc(C#N)cc2)ncc1N [Analogue 7] | 1.3 nM | – | – | 2.2 nM | – | 1.1 nM | 0.3 nM | 2.3 ± 0.1 nM | 0.9 nM | 0.1 nM | 0.1 nM | 2.5x10^5 | 50000 nM | 0.2 nM | four- to fourteen-fold | > 38000 nM | –
Cc1cc(/C=C/C#N)cc(C)c1Nc1ncc([N+](=O)[O-])c(Nc2ccc(C#N)cc2)n1 [Analogue 8] | 4.9 nM | – | – | 86 nM | – | 5.3 nM | 1 nM | 13 nM | 2.6 nM | 0.2 nM | 0.3 nM | 1.0x10^5 | – | 0.9 nM | – | – | –
COc1ccc(Cn2cnc3c(Nc4c(C)cc(/C=C/C#N)cc4C)nc(Nc4ccc(C#N)cc4)nc32)cc1 [Analogue 10] | 14 nM | – | 1.1 nM | – | – | 9.5 nM | 1 nM | > 100 nM | – | – | – | 1.4x10^5 | 154000 nM | – | – | – | –
Cc1cc(/C=C/C#N)cc(C)c1Nc1nc(Nc2ccc(C#N)cc2)nc2[nH]cnc12 [Analogue 11] | 2.9 nM | – | – | 1.2 nM | – | 0.5 nM | 0.1 nM | 13 ± 0.5 nM | 0.4 nM | < 0.1 nM | 0.4 nM | 1.2x10^6 | – | 0.1 nM | four- to fourteen-fold | – | nearly six-fold
COc1ccc(Cn2cnc3c(Nc4ccc(C#N)cc4)nc(Nc4c(C)cc(/C=C/C#N)cc4C)nc32)cc1 [Analogue 12] | 15 nM | – | 2.7 nM | – | – | 6.5 nM | 1.9 nM | 12 nM | – | – | – | 3.1x10^4 | 83000 nM | – | – | – | –
CC(=O)c1ccc(Nc2nc(Nc3c(C)cc(/C=C/C#N)cc3C)nc3[nH]cnc23)cc1 [Analogue 14] | 1.5 nM | – | 0.3 nM | – | – | 5.9 nM | 0.3 nM | 64 nM | – | – | – | 2.7x10^4 | 8000 nM | – | – | – | –
Cc1cc(/C=C/C#N)cc(C)c1Nc1nc(Nc2ccc(C(F)(F)F)cc2)c2nc[nH]c2n1 [Analogue 15] | 4.7 nM | – | 1.5 nM | – | – | 3.3 nM | 0.9 nM | 17 nM | – | – | – | 1.1x10^4 | 17000 nM | – | – | – | –
COc1ccc(Nc2nc(Nc3c(C)cc(/C=C/C#N)cc3C)nc3[nH]cnc23)cc1 [Analogue 16] | 1.1 nM | 0.4 nM | 0.2 nM | – | – | 2.3 nM | 0.2 nM | 29 nM | – | – | – | 6.0x10^4 | 12000 nM | – | – | – | –
Cc1cc(/C=C/C#N)cc(C)c1Nc1nc(Nc2ccc(F)cc2)c2nc[nH]c2n1 [Analogue 17] | 3.1 nM | – | 1.7 nM | – | – | 2 nM | 1.3 nM | 15 nM | – | – | – | 7.1x10^3 | 12000 nM | – | – | – | –
Cc1cc(/C=C/C#N)cc(C)c1Nc1nc(Nc2cc(F)cc(F)c2)c2nc[nH]c2n1 [Analogue 18] | 28 nM | – | 9.3 nM | – | – | 56 nM | 4.9 nM | > 100 nM | – | – | – | 1.4x10^3 | 13000 nM | – | – | – | –
Cc1cc(/C=C/C#N)cc(C)c1Nc1nc(Nc2ccccn2)c2nc[nH]c2n1 [Analogue 19] | > 100 nM | – | > 100 nM | – | – | > 100 nM | > 100 nM | > 100 nM | – | – | – | < 3.6x10^2 | 36000 nM | – | – | – | –
Cc1nc2cc(Nc3nc(Nc4c(C)cc(/C=C/C#N)cc4C)nc4[nH]cnc34)ccc2s1 [Analogue 22] | 8.3 nM | – | 0.6 nM | – | – | 6.1 nM | 2.2 nM | > 100 nM | – | – | – | 9.5x10^4 | 57000 nM | – | – | – | –
Cc1cc(/C=C/C#N)cc(C)c1Nc1nc(Nc2ccc3c(c2)CCC3)c2nc[nH]c2n1 [Analogue 23] | 7.9 nM | – | 0.4 nM | – | – | 4.1 nM | 1.7 nM | > 100 nM | – | – | – | 7.5x10^4 | 30000 nM | – | – | – | –
Cc1cc(/C=C/C#N)cc(C)c1Nc1nc(Nc2ccc3c(c2)OCO3)c2nc[nH]c2n1 [Analogue 24] | 1.6 nM | – | 0.1 nM | – | – | 3 nM | 0.6 nM | 23 nM | – | – | – | 1.9x10^5 | 19000 nM | – | – | – | –
Cc1cc(/C=C/C#N)cc(C)c1Nc1nc(Nc2ccc3nn[nH]c3c2)c2nc[nH]c2n1 [Analogue 25] | > 100 nM | – | 19 nM | – | – | > 100 nM | > 100 nM | > 100 nM | – | – | – | 5.3x10^3 | 100000 nM | – | – | – | –
